{"source": "patent US20180221306A1", "about": "“PHARMACEUTICAL COMPOSITIONS OF 5-HYDROXY-2-METHYLNAPHTHALENE-1,4-DIONE” (PellFiCure Pharmaceuticals, Inc., priority 2016, published 2018)", "assay": "Forced degradation: solution stability in aqueous media (HPLC)", "note": "Marks after values point to notes of the source that are not given here.", "data": [{"smiles": "CC1=CC(=O)c2c(O)cccc2C1=O", "note": "[Compound I, 5-hydroxy-2-methylnaphthalene-1,4-dione]", "values": [{"measurement": "Solution Stability in Aqueous Media, Purity", "setting": "pH 3, 50% DMSO, 40° C./75% RH, t = 2 week", "value": 72.78, "unit": "% Area"}, {"measurement": "Solution Stability in Aqueous Media, Purity", "setting": "pH 4, 50% DMSO, 25° C./60% RH, t = 0", "value": 98.73, "unit": "% Area"}, {"measurement": "Solution Stability in Aqueous Media, Purity", "setting": "pH 4, 50% DMSO, 25° C./60% RH, t = 1 week, precipitation observed", "value": "96.77^‡ % Area"}, {"measurement": "Solution Stability in Aqueous Media, Purity", "setting": "pH 4, 50% DMSO, 25° C./60% RH, t = 2 week, precipitation observed", "value": "93.81^‡ % Area"}, {"measurement": "Solution Stability in Aqueous Media, Purity", "setting": "pH 4, 50% DMSO, 40° C./75% RH, t = 1 week, precipitation observed", "value": "87.32^‡ % Area"}, {"measurement": "Solution Stability in Aqueous Media, Purity", "setting": "pH 4, 50% DMSO, 40° C./75% RH, t = 2 week, precipitation observed", "value": "73.78^‡ % Area"}, {"measurement": "Solution Stability in Aqueous Media, Purity", "setting": "pH 5, 50% DMSO, 25° C./60% RH, t = 0", "value": 98.46, "unit": "% Area"}, {"measurement": "Solution Stability in Aqueous Media, Purity", "setting": "pH 5, 50% DMSO, 25° C./60% RH, t = 1 week, precipitation observed", "value": "92.26^‡ % Area"}, {"measurement": "Solution Stability in Aqueous Media, Purity", "setting": "pH 5, 50% DMSO, 25° C./60% RH, t = 2 week, precipitation observed", "value": "83.09^‡ % Area"}, {"measurement": "Solution Stability in Aqueous Media, Purity", "setting": "pH 5, 50% DMSO, 40° C./75% RH, t = 1 week, precipitation observed", "value": "58.98^‡ % Area"}, {"measurement": "Solution Stability in Aqueous Media, Purity", "setting": "pH 5, 50% DMSO, 40° C./75% RH, t = 2 week, precipitation observed", "value": "29.30^‡ % Area"}, {"measurement": "Solution Stability in Aqueous Media, Purity", "setting": "pH 6, 50% DMSO, 25° C./60% RH, t = 0", "value": 97.78, "unit": "% Area"}, {"measurement": "Solution Stability in Aqueous Media, Purity", "setting": "pH 6, 50% DMSO, 25° C./60% RH, t = 1 week", "value": 69.37, "unit": "% Area"}, {"measurement": "Solution Stability in Aqueous Media, Purity", "setting": "pH 6, 50% DMSO, 25° C./60% RH, t = 2 week, precipitation observed", "value": "44.92^‡ % Area"}, {"measurement": "Solution Stability in Aqueous Media, Purity", "setting": "pH 6, 50% DMSO, 40° C./75% RH, t = 1 week", "value": "<10", "unit": "% Area"}, {"measurement": "Solution Stability in Aqueous Media, Purity", "setting": "pH 6, 50% DMSO, 40° C./75% RH, t = 2 week, precipitation observed", "value": "<10^‡ % Area"}, {"measurement": "Solution Stability in Aqueous Media, Purity", "setting": "pH 7, 50% DMSO, 25° C./60% RH, t = 0", "value": 91.09, "unit": "% Area"}, {"measurement": "Solution Stability in Aqueous Media, Purity", "setting": "pH 7, 50% DMSO, 25° C./60% RH, t = 1 week", "value": "<10", "unit": "% Area"}, {"measurement": "Solution Stability in Aqueous Media, Purity", "setting": "pH 7, 50% DMSO, 25° C./60% RH, t = 2 week, precipitation observed", "value": "<10^‡ % Area"}, {"measurement": "Solution Stability in Aqueous Media, Purity", "setting": "pH 7, 50% DMSO, 40° C./75% RH, t = 1 week", "value": "<10", "unit": "% Area"}, {"measurement": "Solution Stability in Aqueous Media, Purity", "setting": "pH 7, 50% DMSO, 40° C./75% RH, t = 2 week, precipitation observed", "value": "<10^‡ % Area"}, {"measurement": "Solution Stability in Aqueous Media, Purity", "setting": "pH 8, 50% DMSO, 25° C./60% RH, t = 0", "value": 81.64, "unit": "% Area"}, {"measurement": "Solution Stability in Aqueous Media, Purity", "setting": "pH 8, 50% DMSO, 25° C./60% RH, t = 1 week", "value": "<10", "unit": "% Area"}, {"measurement": "Solution Stability in Aqueous Media, Purity", "setting": "pH 8, 50% DMSO, 25° C./60% RH, t = 2 week, precipitation observed", "value": "<10^‡ % Area"}, {"measurement": "Solution Stability in Aqueous Media, Purity", "setting": "pH 8, 50% DMSO, 40° C./75% RH, t = 1 week", "value": "<10", "unit": "% Area"}, {"measurement": "Solution Stability in Aqueous Media, Purity", "setting": "pH 8, 50% DMSO, 40° C./75% RH, t = 2 week, precipitation observed", "value": "<10^‡ % Area"}, {"measurement": "Solution Stability in Aqueous Media, Purity", "setting": "pH 9, 50% DMSO, 25° C./60% RH, t = 0", "value": 89.84, "unit": "% Area"}, {"measurement": "Solution Stability in Aqueous Media, Purity", "setting": "pH 9, 50% DMSO, 25° C./60% RH, t = 1 week", "value": 30.06, "unit": "% Area"}, {"measurement": "Solution Stability in Aqueous Media, Purity", "setting": "pH 9, 50% DMSO, 25° C./60% RH, t = 2 week, precipitation observed", "value": "7.58^‡ % Area"}, {"measurement": "Solution Stability in Aqueous Media, Purity", "setting": "pH 9, 50% DMSO, 40° C./75% RH, t = 1 week", "value": "<10", "unit": "% Area"}, {"measurement": "Solution Stability in Aqueous Media, Purity", "setting": "pH 9, 50% DMSO, 40° C./75% RH, t = 2 week, precipitation observed", "value": "<10^‡ % Area"}, {"measurement": "Solution Stability in Aqueous Media, Purity", "setting": "pH 10, 50% DMSO, 25° C./60% RH, t = 0", "value": 88.46, "unit": "% Area"}, {"measurement": "Solution Stability in Aqueous Media, Purity", "setting": "pH 10, 50% DMSO, 25° C./60% RH, t = 1 week", "value": 37.43, "unit": "% Area"}, {"measurement": "Solution Stability in Aqueous Media, Purity", "setting": "pH 10, 50% DMSO, 25° C./60% RH, t = 2 week, precipitation observed", "value": "<10^‡ % Area"}, {"measurement": "Solution Stability in Aqueous Media, Purity", "setting": "pH 10, 50% DMSO, 40° C./75% RH, t = 1 week, precipitation observed", "value": "<10^‡ % Area"}, {"measurement": "Solution Stability in Aqueous Media, Purity", "setting": "pH 10, 50% DMSO, 40° C./75% RH, t = 2 week, precipitation observed", "value": "<10^‡ % Area"}, {"measurement": "Solution Stability in Aqueous Media, Purity", "setting": "water, 25° C./60% RH, t = 0", "value": 96.33, "unit": "% Area"}, {"measurement": "Solution Stability in Aqueous Media, Purity", "setting": "water, 25° C./60% RH, t = 1 week, precipitation observed", "value": "66.97^‡ % Area"}, {"measurement": "Solution Stability in Aqueous Media, Purity", "setting": "water, 25° C./60% RH, t = 2 week, precipitation observed", "value": "53.76^‡ % Area"}, {"measurement": "Solution Stability in Aqueous Media, Purity", "setting": "water, 40° C./75% RH, t = 1 week, precipitation observed", "value": "45.09^‡ % Area"}, {"measurement": "Solution Stability in Aqueous Media, Purity", "setting": "water, 40° C./75% RH, t = 2 week, precipitation observed", "value": "44.20^‡ % Area"}]}]}
